Where “and” joins values, the source holds several entries; their conditions need not be identical. Identical values can stand only once. Inconclusive results and toxic doses are left out. How the source made its calls: active means survival T/C of 150% or more; inactive means T/C below 125% in these data.
Test system: BDF1 mice, P388 leukemia ip, median survival T/C
Experiment: NCI In Vivo Anticancer Drug Screen. Data for tumor model P388 Leukemia (intraperitoneal) in B6D2F1 (BDF1) mice
Details: endpoint: median survival time, higher = longer survival
Method in brief: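 Each value expresses how treatment altered survival: treated-mouse outcome over vehicle-mouse outcome, both groups bearing the transplanted tumour.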

[1] = dose: 100.0 mg/kg/injection, schedule: Q04DX003 (ip), vehicle: Klucel (hydroxypropylcellulose) (HPC)
[2] = dose: 200.0 mg/kg/injection, schedule: Q04DX003 (ip), vehicle: Klucel (hydroxypropylcellulose) (HPC)
[3] = dose: 400.0 mg/kg/injection, schedule: Q04DX003 (ip), vehicle: Klucel (hydroxypropylcellulose) (HPC)
[4] = dose: 50.0 mg/kg/injection, schedule: Q01DX009 (ip), vehicle: saline with Tween-80
[5] = dose: 100.0 mg/kg/injection, schedule: Q01DX009 (ip), vehicle: saline with Tween-80

Measured: T/C

NC1=NC(=S)C2N=C(N=Nc3ccc(C(=O)NC(CCC(=O)O)C(=O)O)cc3)N=C2N1 (configuration not stated)
inactive: dose: 1.56 mg/kg/injection, schedule: Q01DX009 (ip), vehicle: Klucel (hydroxypropylcellulose) (HPC) 120 % of control | dose: 3.13 mg/kg/injection, schedule: Q01DX009 (ip), vehicle: Klucel (hydroxypropylcellulose) (HPC) 91 % of control | dose: 6.25 mg/kg/injection, schedule: Q01DX009 (ip), vehicle: Klucel (hydroxypropylcellulose) (HPC) 87 % of control | dose: 25.0 mg/kg/injection, schedule: Q04DX003 (ip), vehicle: Klucel (hydroxypropylcellulose) (HPC) 120 % of control | dose: 50.0 mg/kg/injection, schedule: Q04DX003 (ip), vehicle: Klucel (hydroxypropylcellulose) (HPC) 112 % of control

CC(=O)O[C@@H]1C[C@@]2(C)[C@@H]3CC=C4[C@@H](C[C@H](O)C(=O)C4(C)C)[C@]3(C)C(=O)C[C@]2(C)[C@H]1[C@@](C)(O)C(=O)/C=C/C(C)(C)OC(C)=O
inactive: dose: 12.5 mg/kg/injection, schedule: Q01DX010 (ip), vehicle: carboxymethylcellulose (CMC) 109 % of control | dose: 25.0 mg/kg/injection, schedule: Q01DX010 (ip), vehicle: carboxymethylcellulose (CMC) 122 % of control | dose: 50.0 mg/kg/injection, schedule: Q01DX010 (ip), vehicle: carboxymethylcellulose (CMC) 95 % of control

Nc1nc(=O)c2[nH]cnc2n1O
inactive: dose: 13.75 mg/kg/injection, schedule: Q01DX009 (ip), vehicle: saline 90 % of control | dose: 27.5 mg/kg/injection, schedule: Q01DX009 (ip), vehicle: saline 95 % of control

CCCCCCCCCCCCCCCCCCCC/C=C/C1CC(=O)OC1=O (configuration not stated)
inactive: dose: 75.0 mg/kg/injection, schedule: Q01DX009 (ip), vehicle: Klucel (hydroxypropylcellulose) (HPC) 95 % of control | [1] 100 % of control | dose: 150.0 mg/kg/injection, schedule: Q01DX009 (ip), vehicle: Klucel (hydroxypropylcellulose) (HPC) 95 % of control | [2] 87 % of control | dose: 300.0 mg/kg/injection, schedule: Q01DX009 (ip), vehicle: Klucel (hydroxypropylcellulose) (HPC) 86 % of control | [3] 87 % of control

O=C1CCC(C(=O)N/N=C\C=N/NC(=O)C2CCC(=O)N2)N1 (configuration not stated)
inactive: dose: 20.0 mg/kg/injection, schedule: Q01DX009 (ip), vehicle: saline with Tween-80 91 % of control

CCOC(=O)C1(c2ccccc2)C(=O)Oc2ccccc21 (configuration not stated)
inactive: dose: 25.0 mg/kg/injection, schedule: Q01DX009 (ip), vehicle: saline with Tween-80 100 % of control | [4] 98 % of control | [5] 108 % of control | dose: 200.0 mg/kg/injection, schedule: Q01DX009 (ip), vehicle: saline with Tween-80 122 % of control

NC(=O)C1CCCC12NC(=O)NC2=O (configuration not stated)
inactive: [1] 109 % of control | [2] 100 % of control | [3] 95 % of control

COC(=O)c1cccc(OP(=O)(N(C)C)N(C)C)c1
inactive: [4] 106 % of control | [5] 114 % of control

O=Cc1cc([N+](=O)[O-])ccc1Cl
inactive: dose: 50.0 mg/kg/injection, schedule: Q04DX003 (ip), vehicle: saline with Tween-80 100 % of control | dose: 100.0 mg/kg/injection, schedule: Q04DX003 (ip), vehicle: saline with Tween-80 96 % of control | dose: 200.0 mg/kg/injection, schedule: Q04DX003 (ip), vehicle: saline with Tween-80 100 % of control

C=C(COc1ccc(Cl)cc1)COc1ccc(Cl)cc1
inactive: dose: 50.0 mg/kg/injection, schedule: Q01DX001 (ip), vehicle: other 103 % of control | dose: 50.0 mg/kg/injection, schedule: Q04DX003 (ip), vehicle: other 100 % of control | dose: 100.0 mg/kg/injection, schedule: Q01DX001 (ip), vehicle: other 100 % of control | dose: 100.0 mg/kg/injection, schedule: Q04DX003 (ip), vehicle: other 91 % of control | dose: 200.0 mg/kg/injection, schedule: Q01DX001 (ip), vehicle: other 94 % of control | dose: 200.0 mg/kg/injection, schedule: Q04DX003 (ip), vehicle: other 101 % of control | dose: 400.0 mg/kg/injection, schedule: Q01DX001 (ip), vehicle: other 102 % of control | dose: 400.0 mg/kg/injection, schedule: Q04DX003 (ip), vehicle: other 93 % of control

N/C(=N\O)c1cccnc1
inactive: dose: 12.5 mg/kg/injection, schedule: Q01DX009 (ip), vehicle: water 109 % of control | dose: 25.0 mg/kg/injection, schedule: Q01DX009 (ip), vehicle: water 102 % of control | dose: 50.0 mg/kg/injection, schedule: Q01DX009 (ip), vehicle: water 102 % of control | dose: 50.0 mg/kg/injection, schedule: Q04DX003 (ip), vehicle: water 101 % of control and 102 % of control | dose: 100.0 mg/kg/injection, schedule: Q01DX009 (ip), vehicle: water 102 % of control | dose: 100.0 mg/kg/injection, schedule: Q04DX003 (ip), vehicle: water 87 % of control and 105 % of control | dose: 200.0 mg/kg/injection, schedule: Q01DX009 (ip), vehicle: water 107 % of control | dose: 200.0 mg/kg/injection, schedule: Q04DX003 (ip), vehicle: water 100 % of control and 107 % of control | dose: 300.0 mg/kg/injection, schedule: Q04DX003 (ip), vehicle: water 108 % of control | dose: 400.0 mg/kg/injection, schedule: Q01DX009 (ip), vehicle: water 107 % of control

— PubChem BioAssay AID328 (DTP/NCI, 2004)
